Measurements published in the supplement of paper PMC11061612.

Tests used:
Assay in all cases: Bliss excess, mean over the matrix (fraction); higher = more synergy
BT-20 (Breast Carcinoma) = test system: BT-20 (Breast Carcinoma)
Summary of the method: (§1)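 Cell lines in DMEM/F12 or RPMI with 10% FBS were plated in 1536-well plates, held 24 hours at 37°C, 5% CO2, then given two-drug dose matrices for 72 hours (DMSO typically 0.2%). Viability was read by CellTiter-Glo 2.0 luminescence and scaled as inhibition from 0 (vehicle wells) to 1 (blank wells). Combination Emax is the second-highest inhibition in the matrix; Bliss excess is observed combination effect minus expected EA + EB − EA·EB, EA and EB being single-agent effects.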

EW-18 (Ewing's Sarcoma) = test system: EW-18 (Ewing's Sarcoma)
Summary of the method: as §1

[1] = test system: PFSK-1 (Other Solid Carcinomas)
Summary of the method: as §1

[2] = test system: HSC-2 (Oral Cavity Carcinoma)
Summary of the method: as §1

[3] = test system: H-EMC-SS (Chondrosarcoma)
Summary of the method: as §1

[4] = test system: VMRC-LCD (Lung Adenocarcinoma)
Summary of the method: as §1

[5] = test system: SCC-9 (Oral Cavity Carcinoma)
Summary of the method: as §1

[6] = test system: NCI-H2405 (Lung Adenocarcinoma)
Summary of the method: as §1

[7] = test system: BV-173 (Chronic Myelogenous Leukemia)
Summary of the method: as §1

[8] = test system: NCI-H513 (Other Solid Carcinomas)
Summary of the method: as §1

[9] = test system: KINGS-1 (Low Grade Glioma)
Summary of the method: as §1

[10] = test system: LOU-NH91 (Squamous Cell Lung Carcinoma)
Summary of the method: as §1

[11] = test system: NCI-H322M (Lung Adenocarcinoma)
Summary of the method: as §1

[12] = test system: OVISE (Ovarian Carcinoma)
Summary of the method: as §1

[13] = test system: ASH-3 (Thyroid Gland Carcinoma)
Summary of the method: as §1

GOTO (Neuroblastoma) = test system: GOTO (Neuroblastoma)
Summary of the method: as §1

[14] = test system: EBC-1 (Squamous Cell Lung Carcinoma)
Summary of the method: as §1

NH-12 (Neuroblastoma) = test system: NH-12 (Neuroblastoma)
Summary of the method: as §1

[15] = test system: LC4-1 (B-Lymphoblastic Leukemia)
Summary of the method: as §1

EW-13 (Ewing's Sarcoma) = test system: EW-13 (Ewing's Sarcoma)
Summary of the method: as §1

SMILES | Bliss excess (BT-20 (Breast Carcinoma)) | Bliss excess (EW-18 (Ewing's Sarcoma)) | Bliss excess [1] | Bliss excess [2] | Bliss excess [3] | Bliss excess [4] | Bliss excess [5] | Bliss excess [6] | Bliss excess [7] | Bliss excess [8] | Bliss excess [9] | Bliss excess [10] | Bliss excess [11] | Bliss excess [12] | Bliss excess [13] | Bliss excess (GOTO (Neuroblastoma)) | Bliss excess [14] | Bliss excess (NH-12 (Neuroblastoma)) | Bliss excess [15] | Bliss excess (EW-13 (Ewing's Sarcoma))
Cc1c2c(nn1C)CSCc1cc(n(C)n1)CSc1cc(c3ccccc3c1)OCCCc1c(C(=O)O)n(C)c3c-2c(Cl)ccc13 [AZD5991] + CC1(C)CCC(CN2CCN(c3ccc(C(=O)NS(=O)(=O)c4ccc(NCC5CCOCC5)c([N+](=O)[O-])c4)c(Oc4cnc5[nH]ccc5c4)c3)CC2)=C(c2ccc(Cl)cc2)C1 [Venetoclax] (first compound max 1 µM, 7x7, partner max 1 µM) | 0.0755 | 0.046 | 0.0721 | 0.0693 | 0.0646 | -0.0217 | -0.0278 | -0.0346 | 0.0178 | -0.0072 | -0.0771 | -0.0589 | -0.0378 | 0.0031 | -0.038 | 0.0588 | -0.0333 | 0.139 | 0.0705 | 0.0893
CC1(C)CCC(CN2CCN(c3ccc(C(=O)NS(=O)(=O)c4ccc(NCC5CCOCC5)c([N+](=O)[O-])c4)c(Oc4cnc5[nH]ccc5c4)c3)CC2)=C(c2ccc(Cl)cc2)C1 [Venetoclax] + CCN(CCO)CCCOc1ccc2c(Nc3cc(CC(=O)Nc4cccc(F)c4)[nH]n3)ncnc2c1 [AZD2811] (first compound max 1 µM, 7x7, partner max 1 µM) | -0.0005 | -0.0131 | 0.0663 | -0.0264 | -0.0468 | -0.0227 | -0.0214 | -0.0345 | -0.0739 | -0.04 | -0.0652 | -0.0477 | -0.0153 | 0.0134 | -0.0166 | 0.0162 | 0.0178 | 0.0685 | 0.0039 | -0.0499
Cc1c2c(nn1C)CSCc1cc(n(C)n1)CSc1cc(c3ccccc3c1)OCCCc1c(C(=O)O)n(C)c3c-2c(Cl)ccc13 [AZD5991] + C=CCn1c(=O)c2cnc(Nc3ccc(N4CCN(C)CC4)cc3)nc2n1-c1cccc(C(C)(C)O)n1 [AZD1775] (first compound max 1 µM, partner max 1 µM) | -0.02 | -0.0102 | -0.0282 | -0.0132 | 0.0071 | -0.0174 | -0.0123 | 0.0385 | -0.072 | -0.003 | -0.0037 | 0.0376 | -0.023 | 0.0108 | -0.0243 | -0.0513 | 0.0007 | -0.0549 | 0.0301 | -0.0441
CN(CCO)CC[C@H](CSc1ccccc1)Nc1ccc(S(=O)(=O)NC(=O)c2ccc(N3CCC([C@@H](O)c4ccccc4-c4ccc(Cl)cc4)CC3)cc2)cc1S(=O)(=O)C(F)(F)F [AZD4320] + CCN(CCO)CCCOc1ccc2c(Nc3cc(CC(=O)Nc4cccc(F)c4)[nH]n3)ncnc2c1 [AZD2811] (first compound max 1 µM, 7x7, partner max 1 µM) | 0.0212 | -0.0795 | -0.0176 | 0.166 | 0.0545 | -0.0741 | -0.0115 | -0.0333 | -0.0566 | -0.0283 | 0.006 | 0.0995 | -0.0353 | -0.0008 | 0.0577 | 0.0053 | 0.0178 | -0.049 | -0.0049 | -0.0076
Cn1cnc2c(F)c(Nc3ccc(Br)cc3Cl)c(C(=O)NOCCO)cc21 [Selumetinib] + C[C@@H]1COCCN1C2=NC(=NC(=C2)C3(CC3)[S@](=N)(=O)C)C4=C5C=CNC5=NC=C4 [AZD6738] (first compound max 10 µM, 7x7, partner max 10 µM) | 0.0733 | -0.0471 | -0.0535 | -0.0553 | -0.0405 | -0.0546 | -0.0302 | 0.0971 | -0.0149 | 0.0555 | 0.0148 | 0.0302 | -0.0415 | -0.0405 | 0.0892 | 0.0043 | -0.0062 | 0.0315 | -0.0168 | -0.0267
Cn1cnc2c(F)c(Nc3ccc(Br)cc3Cl)c(C(=O)NOCCO)cc21 [Selumetinib] + C=CCn1c(=O)c2cnc(Nc3ccc(N4CCN(C)CC4)cc3)nc2n1-c1cccc(C(C)(C)O)n1 [AZD1775] (first compound max 10 µM, partner max 1 µM) | -0.0224 | -0.147 | -0.0549 | -0.0366 | -0.07 | -0.0272 | 0.0789 | 0.0147 | -0.0026 | -0.0387 | 0.0173 | -0.0144 | -0.0097 | -0.0436 | -0.0192 | -0.0119 | 0.0508 | -0.101 | 0.0314 | -0.0742
Cc1nc(Nc2ncc(C(=O)Nc3c(C)cccc3Cl)s2)cc(N2CCN(CCO)CC2)n1 [Dasatinib] + CC(=O)Nc1cccc(-n2c(=O)n(C3CC3)c(=O)c3c(Nc4ccc(I)cc4F)n(C)c(=O)c(C)c32)c1 [Trametinib] (first compound max 2 µM, 7x7, partner max 1 µM) | -0.0878 | -0.086 | -0.095 | -0.0238 | 0.0331 | -0.0596 | 0.0784 | 0.0721 | -0.179 | 0.0273 | -0.0416 | -0.0403 | 0.0004 | 0.0504 | 0.0994 | -0.0631 | 0.0399 | -0.0102 | -0.0543 | -0.0443
CN(CCO)CC[C@H](CSc1ccccc1)Nc1ccc(S(=O)(=O)NC(=O)c2ccc(N3CCC([C@@H](O)c4ccccc4-c4ccc(Cl)cc4)CC3)cc2)cc1S(=O)(=O)C(F)(F)F [AZD4320] + C[C@@H]1COCCN1C2=NC(=NC(=C2)C3(CC3)[S@](=N)(=O)C)C4=C5C=CNC5=NC=C4 [AZD6738] (first compound max 1 µM, 7x7, partner max 10 µM) | 0.0778 | -0.0539 | 0.0409 | 0.0594 | -0.0351 | -0.0764 | -0.0587 | -0.0448 | -0.0453 | -0.0586 | -0.0806 | 0.0126 | -0.0335 | -0.0206 | -0.0011 | -0.0126 | -0.015 | -0.0795 | 0.0481 | -0.0009
CC1(C)CCC(CN2CCN(c3ccc(C(=O)NS(=O)(=O)c4ccc(NCC5CCOCC5)c([N+](=O)[O-])c4)c(Oc4cnc5[nH]ccc5c4)c3)CC2)=C(c2ccc(Cl)cc2)C1 [Venetoclax] + C[C@@H](Nc1cc(F)cc(F)c1)c1cc(C(=O)N(C)C)cc2c(=O)cc(N3CCOCC3)oc12 [AZD8186] (first compound max 1 µM, 7x7, partner max 3 µM) | -0.0229 | 0.0781 | 0.0015 | -0.0482 | -0.0159 | -0.0457 | -0.0222 | -0.0396 | -0.0477 | -0.0586 | 0.0081 | -0.0647 | -0.0526 | -0.0296 | -0.0223 | -0.0334 | -0.0233 | 0.124 | 0.0967 | 0.0349
NC1(C(=O)N[C@@H](CCO)c2ccc(Cl)cc2)CCN(c2ncnc3[nH]ccc23)CC1 [Capivasertib] + COc1nnc2ccc(N3CCC(c4ccc(OCCN5CCN(C)C(=O)[C@H]5C)cc4)CC3)nn12 [AZD5153] (first compound max 10 µM, 7x7, partner max 1 µM) | 0.0023 | 0.0119 | -0.0158 | 0.0456 | 0.0011 | 0.0154 | 0.0627 | 0.0138 | -0.0607 | -0.0222 | -0.0017 | -0.025 | -0.0144 | -0.0055 | 0.0231 | 0.032 | 0.0374 | 0.0177 | 0.002 | 0.0153
